Columns and labels:
Adenosine A2 receptor [1] = target: T1, Adenosine A2 receptor (UniProt P29275+P29274); conditions: Canis lupus familiaris
Description: Molar potency ratio (MPR) against adenosine A2 receptor of canine coronary artery

[2] = Index of hydrophobicity (k'); type: ADME
Adenosine A2 receptor [3] = target: T1, Adenosine A2 receptor; assay: Acidic dissociation constant(pKa) against A2 adenosine receptor of coronary artery; type: protein assay; conditions: Canis lupus familiaris

Row | Structure (SMILES) | MPR (Adenosine A2 receptor [1]) | k' [2] | pka (Adenosine A2 receptor [3])
1 | OC[C@H]1OC(n2cnc3c(NCc4cc(Cl)ccc4Cl)ncnc32)[C@H](O)[C@@H]1O (stereo not given in full) | 1.8 | 5.97 | 
2 | OC[C@H]1OC(n2cnc3c(Nc4cccc(Cl)c4)ncnc32)[C@H](O)[C@@H]1O (stereo not given in full) | 0.2 | 5.05 | 2.61
3 | OC[C@H]1OC(n2cnc3c(NCCc4ccc5ccccc5c4)ncnc32)[C@H](O)[C@@H]1O (stereo not given in full) | 0.12 | 6.29 | 
4 | OC[C@H]1OC(n2cnc3c(NCCc4ccccc4F)ncnc32)[C@H](O)[C@@H]1O (stereo not given in full) | 1.9 | 2.36 | 3.19
5 | COc1ccc(Nc2ncnc3c2ncn3[C@@H]2O[C@H](CO)[C@@H](O)[C@H]2O)cc1 | 3.5 | 1.36 | 2.95
6 | COc1ccc(CCNc2ncnc3c2ncn3C2O[C@H](CO)[C@@H](O)[C@H]2O)cc1 (stereo not given in full) | 0.29 | 1.93 | 3.49
7 | COc1ccc(CCNc2ncnc3c2ncn3C2O[C@H](CO)[C@@H](O)[C@H]2O)cc1OC (stereo not given in full) | 2.7 | 1.45 | 
8 | OC[C@H]1OC(n2cnc3c(Nc4ccccc4F)ncnc32)[C@H](O)[C@@H]1O (stereo not given in full) | 0.91 | 1.48 | 2.39
9 | Cn1cccc1CCNc1ncnc2c1ncn2C1O[C@H](CO)[C@@H](O)[C@H]1O (stereo not given in full) | 0.64 | 0.86 | 
10 | OC[C@H]1OC(n2cnc3c(NCCc4cccc5ccccc45)ncnc32)[C@H](O)[C@@H]1O (stereo not given in full) | 0.11 | 6.82 | 
11 | OC[C@H]1OC(n2cnc3c(NCCc4ccc(Cl)cc4)ncnc32)[C@H](O)[C@@H]1O (stereo not given in full) | 0.41 | 4.07 | 3.23
12 | COc1cc(CCNc2ncnc3c2ncn3C2O[C@H](CO)[C@@H](O)[C@H]2O)cc(OC)c1OC (stereo not given in full) | 5.2 | 1.54 | 
13 | Cc1ccc(Nc2ncnc3c2ncn3C2O[C@H](CO)[C@@H](O)[C@H]2O)cc1 (stereo not given in full) | 1.3 | 3.28 | 2.79
14 | C[C@@H](Nc1ncnc2c1ncn2[C@@H]1O[C@H](CO)[C@@H](O)[C@H]1O)c1ccccc1 | 0.52 | 1.64 | 
15 | OC[C@H]1OC(n2cnc3c(NCCc4ccncc4)ncnc32)[C@H](O)[C@@H]1O (stereo not given in full) | 0.42 | 0.32 | < 1
16 | COc1ccc(CCCNc2ncnc3c2ncn3C2O[C@H](CO)[C@@H](O)[C@H]2O)cc1OC (stereo not given in full) | 0.14 | 2.05 | 
17 | OC[C@H]1O[C@@H](n2cnc3c(NCCc4ccccc4)ncnc32)[C@H](O)[C@@H]1O | 2 | 1.77 | 3.57
18 | OC[C@H]1OC(n2cnc3c(NCCc4cccnc4)ncnc32)[C@H](O)[C@@H]1O (stereo not given in full) | 3 | 0.38 | < 1

Row | Structure (SMILES) | MPR (Adenosine A2 receptor [1]) | k' [2] | pka (Adenosine A2 receptor [3])
19 | COc1cc(CCCNc2ncnc3c2ncn3C2O[C@H](CO)[C@@H](O)[C@H]2O)cc(OC)c1OC (stereo not given in full) | 0.056 | 2.05 | 
20 | Cc1ccccc1CNc1ncnc2c1ncn2[C@@H]1O[C@H](CO)[C@@H](O)[C@H]1O | 1.8 | 2.76 | 3.22
21 | Cc1cccc(CCNc2ncnc3c2ncn3C2O[C@H](CO)[C@@H](O)[C@H]2O)c1 (stereo not given in full) | 1.1 | 4.64 | 
22 | OC[C@H]1OC(n2cnc3c(NCCc4ccc5c(c4)OCO5)ncnc32)[C@H](O)[C@@H]1O (stereo not given in full) | 0.42 | 2.52 | 
23 | OC[C@H]1OC(n2cnc3c(NC4CCCC[C@@H]4c4ccccc4)ncnc32)[C@H](O)[C@@H]1O (stereo not given in full) | 0.19 | 2 | 
24 | Cc1cccc(CNc2ncnc3c2ncn3[C@@H]2O[C@H](CO)[C@@H](O)[C@H]2O)c1 | 0.85 | 2.92 | 
25 | CC(CCc1ccccc1)Nc1ncnc2c1ncn2C1O[C@H](CO)[C@@H](O)[C@H]1O (stereo not given in full) | 0.19 | 6.11 | 
26 | OC[C@H]1OC(n2cnc3c(NCCc4c[nH]cn4)ncnc32)[C@H](O)[C@@H]1O (stereo not given in full) | 0.42 | 0.14 | 
27 | OC[C@H]1O[C@@H](n2cnc3c(NCc4cccc(Cl)c4)ncnc32)[C@H](O)[C@@H]1O | 0.34 | 3.36 | 
28 | OC[C@H]1OC(n2cnc3c(NCCc4cccs4)ncnc32)[C@H](O)[C@@H]1O (stereo not given in full) | 4 | 1.36 | 
29 | OC[C@H]1OC(n2cnc3c(NCCc4cccc(C(F)(F)F)c4)ncnc32)[C@H](O)[C@@H]1O (stereo not given in full) | 0.82 | 6.68 | 
30 | OC[C@H]1OC(n2cnc3c(NCc4cccnc4)ncnc32)[C@H](O)[C@@H]1O (stereo not given in full) | 0.69 | 0.29 | 
31 | OC[C@H]1OC(n2cnc3c(NCCc4cccc(Cl)c4)ncnc32)[C@H](O)[C@@H]1O (stereo not given in full) | 1.3 | 4.14 | 
32 | C[C@H](Cc1ccccc1)Nc1ncnc2c1ncn2[C@@H]1O[C@H](CO)[C@@H](O)[C@H]1O (stereo in doubt; 1a) [(R)-PIA] |  | 2.61 | 
33 | OC[C@H]1OC(n2cnc3c(NC/C=C/c4ccccc4)ncnc32)[C@H](O)[C@@H]1O (stereo not given in full) | 0.32 | 2.36 | 
34 | Cc1cccc(Nc2ncnc3c2ncn3C2O[C@H](CO)[C@@H](O)[C@H]2O)c1C (stereo not given in full) | 0.13 | 2.58 | 
35 | COc1ccc(Nc2ncnc3c2ncn3C2O[C@H](CO)[C@@H](O)[C@H]2O)cc1OC (stereo not given in full) | 0.04 | 2.1 | 

Reference: ChEMBL document CHEMBL1123294, “Dog coronary artery adenosine receptor: structure of the N6-aryl subregion” (J Med Chem, 1986)
